Data as given in patent US20260207535A1, “CRIBLAGE INHIBITEURS USP8” (COMMISSARIAT A L'ENERGIE ATOMIQUE ET AUX ENERGIES …, priority 2022, published 2026).

What was measured:
USP8CD = molecular target: T1, USP8CD (Homo sapiens, UniProt P40818); experiment: Reversibility (dilution / gel filtration) assay of USP8 inhibition; format: biochemical; settings: USP8CD 60 nM, activity before and after gel column filtration
T1 construct: an in-house purified catalytic domain of USP8 (USP8CD) was used at a concentration of 80 nM; made in house
T1 sequence (P40818 777-1109 limits assumed): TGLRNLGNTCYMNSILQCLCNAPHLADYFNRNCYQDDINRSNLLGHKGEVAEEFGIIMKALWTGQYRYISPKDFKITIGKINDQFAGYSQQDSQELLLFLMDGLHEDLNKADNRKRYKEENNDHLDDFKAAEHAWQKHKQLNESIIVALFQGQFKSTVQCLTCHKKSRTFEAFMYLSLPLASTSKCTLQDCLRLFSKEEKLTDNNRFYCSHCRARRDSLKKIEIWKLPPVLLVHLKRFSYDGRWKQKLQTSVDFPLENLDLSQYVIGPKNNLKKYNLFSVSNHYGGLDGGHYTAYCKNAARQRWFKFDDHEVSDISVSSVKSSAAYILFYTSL
Protocol: DUB activity relies on a conserved catalytic cysteine residue which is particularly sensitive to irreversible oxidation by reactive oxygen species (ROS) (Lee et al., 2013). […] In this setup, purified USP8CD was used at a concentration of 60 nM and incubated for 20 min with either the inhibitory compound or with DMSO in buffered conditions. The catalytic activity of each mix was monitored on Ub-Rho substrate (Ubiquigent ref. 60-0117-050) used at a final concentration of 0.1 μM before and after filtration on a gel column (Millipore UFC30GV25). If a catalytic activity is detected after column filtration, the compound is a reversible inhibitor.

[1] = molecular target: T2, catalytic domain of USP2 (USP2CD) (Homo sapiens, UniProt O75604); experiment: USP2 CD inhibition (Ub-Rho); format: biochemical; settings: USP2CD 16 nM
T2 construct: The purified catalytic domain of USP2 (USP2CD, in-house purified) was used; made in house
T2 sequence (O75604 267-599 limits assumed): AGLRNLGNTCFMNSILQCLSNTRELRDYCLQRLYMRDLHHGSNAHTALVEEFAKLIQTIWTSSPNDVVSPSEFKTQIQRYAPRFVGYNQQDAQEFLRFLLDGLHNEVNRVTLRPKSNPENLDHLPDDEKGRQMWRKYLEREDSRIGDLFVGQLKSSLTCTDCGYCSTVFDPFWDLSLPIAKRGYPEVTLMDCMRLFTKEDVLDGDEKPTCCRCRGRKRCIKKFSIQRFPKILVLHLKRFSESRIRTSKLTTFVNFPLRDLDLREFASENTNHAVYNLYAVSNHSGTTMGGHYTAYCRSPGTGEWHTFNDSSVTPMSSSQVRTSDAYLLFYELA
Protocol: The purified catalytic domain of USP2 (USP2CD, in-house purified) was used at a concentration of 16 nM in the presence of the artificial substrate Ub-Rho. Inhibition assays were performed as described above.

UCH-L3 = molecular target: T3, UCH-L3 (Homo sapiens, UniProt P15374); experiment: UCH-L3 inhibition assay (Ub-Rhodamine); format: biochemical; settings: UCH-L3 3 nM
T3 construct: or the more distant UCH-L3 enzyme (Full length); purchased BostonBiochem E-325
T3 sequence (P15374 1-230): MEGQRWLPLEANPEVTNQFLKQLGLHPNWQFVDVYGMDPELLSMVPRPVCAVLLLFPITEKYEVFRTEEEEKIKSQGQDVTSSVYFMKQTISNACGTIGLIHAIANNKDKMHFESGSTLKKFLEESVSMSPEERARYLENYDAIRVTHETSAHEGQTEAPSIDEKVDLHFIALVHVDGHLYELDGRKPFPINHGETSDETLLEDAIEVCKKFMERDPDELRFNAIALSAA
Protocol: UCH-L3 (BostonBiochem ref. E-325) was used at a concentration of 3 nM in the presence of the Ub-Rhodamine. Enzymatic inhibition was monitored as for USP8 or USP2 CD.

From the text for AtT-20 cells: The AtT-20 cells viability was monitored in the conditions used to follow ACTH secretion. The viability of treated cells was concomitantly evaluated using a Cell Viability Reagent (monitoring of the cells' reducing capacity) (PrestoBlue® assay, Molecular Probes) with the aim to determine non-toxic doses of cell treatment.
After the collection of the supernatant sample for the ACTH assay in the previous step, cells were supplemented with the PrestoBlue™ cell viability reagent (Invitrogen™ A13261) at 10% final volume, and re-incubated at 37° C. for 30 minutes. Fluorescence was then read with a FLUOstar OPTIMA microplate reader.

In the case of `Cc1cc(C(C#N)c2ccc(Cl)cc2)c(Cl)cc1NC(=O)c1cc(I)cc(I)c1O` (centres unmarked) [Closantel, reference compound], the “dose-dependent viability assay, in words (FIG. 7)” value (AtT-20 cells) was “less cytotoxic than niclosamide”, the “AtT-20 cell viability (PrestoBlue assay) % of control (DMSO) at 25 μM Mean (SD)” value (AtT-20 cells; mouse, 24 h, 25 μM) was 104.8 (16.08) % and the “reversibility of USP8 inhibition” value (USP8CD) was “reversible”. For the same molecule, the “activity against USP2CD” value [1] was “active” and the “activity against UCH-L3” value (UCH-L3) was “not active”.
